For the test, the system named is Northern corn root worm adults (diabrotica longiscornis). The test is described as follows: Spray test on Northern corn root worm adults. Type of test: in vivo. The settings on record: insects sprayed, inspected after 24 hours, amounts in grams/litre. As to the method: The insecticidal compositions being tested were formulated in aqueous solution. The amounts of the ingredients are specified in the examples, and unless stated otherwise, are expressed in grams/litre. The compositions were tested on Northern corn root worm adults (diabrotica longiscornis). The insects were treated and tested as indicated above.

The results in this text go back to US6586470B1, “Insecticidal composition” (Ecoval INC, priority 1998, dated 2003).

Consider `CC(=O)O` [Sample 1, acetic acid], for which the “% Control” value was found to be 0%, the Alive worked out at 10 and the Dead stood at 0.

On to `O=C(O)CC(O)(CC(=O)O)C(=O)O` [Sample 19, citric acid], for which the “% Control” value came out at 20%, the Alive is given as 8 and the Dead amounted to 2. Further, the “% Control” value (listed as citric acid at 25 g/l) is recorded as “partial control”.

For the compound `O=C(O)CC(O)(CC(=O)O)C(=O)O` [Sample 2, citric acid], the “% Control” value was 0%, the Alive is reported as 10 and the Dead is recorded as 0.

`CC(=O)O` [Sample 18, acetic acid]: the “% Control” value is on record as 30%, the Alive was 7 and the Dead is 3. In addition, the “% Control” value (listed as acetic acid at 50 g/l) is on record as “partial control”.

Take `CC(=O)O` [Sample 15, acetic acid]: the “% Control” value was determined as 0%, the Alive amounted to 10 and the Dead was determined as 0.
